Drawing on PubChem BioAssay (NCI), this text covers TGI and GI50 for 15 compounds.

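A five-concentration, 48-hour dose response in 96-well plates underlies each endpoint, interpolated linearly between surrounding concentrations. GI50 marks 50% less growth. Definition used: TGI = concentration required for complete inhibition of growth.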

Among the test systems are KM12 colon; SNB-75 CNS; ACHN renal; SNB-19 CNS; COLO 205 colon; SK-MEL-5 melanoma; HOP-92 NSCLC; OVCAR-5 ovarian; HCC-2998 colon; SR leukemia.
Holding throughout (assay): inhibition of tumour cell growth, NCI panel, 48 h

Regarding `COS(=O)CCOC(=O)c1ccccc1SSc1ccccc1C(=O)OCCS(=O)OC` (centres undefined), the TGI in the experiment on KM12 colon was more than 100 µM; with SNB-75 CNS it was 70.2 µM; in the experiment with ACHN renal it was more than 100 µM; in the experiment on SNB-19 CNS, more than 100 µM; in the experiment with COLO 205 colon, 49.1 µM; with SK-MEL-5 melanoma, more than 100 µM. In addition, the TGI with HOP-92 NSCLC was 74.2 µM; in the experiment with OVCAR-5 ovarian, more than 100 µM.

Regarding `C=C1C(=O)C23C(CC(OC(C)=O)C1[C@@H]2OC(C)=O)C1(C)C(OC(C)=O)CCC(C)(C)C1C[C@@H]3OC(C)=O` (some centres undefined), the TGI with KM12 colon was 3.49 µM; with SNB-75 CNS it was 2.89 µM; in the experiment with HCC-2998 colon, 3.24 µM; in the experiment with ACHN renal it was 2.92 µM; in the experiment with SNB-19 CNS it was 3.31 µM; with SK-MEL-5 melanoma, 3.33 µM. In addition, the TGI is 1.35 µM with HOP-92 NSCLC and 3.27 µM in the experiment with OVCAR-5 ovarian.

Consider `Cc1[nH]nc(C(=O)N/N=C/c2cccs2)c1N=NN(C)C`, for which the TGI in the experiment with KM12 colon was more than 100 µM; in the experiment on SNB-75 CNS, 8.85 µM; in the experiment on HCC-2998 colon it was 26.6 µM; in the experiment with ACHN renal it was 13 µM; in the experiment on SNB-19 CNS, 27.6 µM; in the experiment with COLO 205 colon, 28.2 µM. Further, the TGI in the experiment with SK-MEL-5 melanoma is 50.2 µM; in the experiment on HOP-92 NSCLC it was 55.1 µM; with OVCAR-5 ovarian it was more than 100 µM.

For `CN(C)/C(=N/C(=O)Nc1ccccc1)SCc1ccccc1`, the TGI in the experiment with KM12 colon, with SNB-75 CNS, in the experiment with HCC-2998 colon, in the experiment with ACHN renal, in the experiment on SNB-19 CNS and in the experiment with COLO 205 colon was more than 100 µM throughout. Besides, the TGI in the experiment on SK-MEL-5 melanoma and in the experiment with OVCAR-5 ovarian was more than 100 µM throughout.

For the compound `O=C1CCCc2c(O)ccc(O)c21`, the TGI with KM12 colon, with SNB-75 CNS, in the experiment with HCC-2998 colon, with ACHN renal, in the experiment on SNB-19 CNS and in the experiment on COLO 205 colon was more than 100 µM throughout. The results for the TGI with SK-MEL-5 melanoma, in the experiment with SR leukemia and in the experiment on OVCAR-5 ovarian were more than 100 µM, 91.2 µM and more than 100 µM, respectively.

`CC(C)c1cc2c(O)c(c1)Cc1cc(C(C)C)cc(c1O)Cc1cc(C(C)C)cc(c1O)Cc1cc(C(C)C)cc(c1O)Cc1cc(C(C)C)cc(c1O)Cc1cc(C(C)C)cc(c1O)C2`: the TGI with KM12 colon, in the experiment on SNB-75 CNS, in the experiment with HCC-2998 colon, in the experiment on ACHN renal, in the experiment with SNB-19 CNS and in the experiment on COLO 205 colon was more than 100 µM each time. In addition, the TGI in the experiment on SK-MEL-5 melanoma, in the experiment on HOP-92 NSCLC and with OVCAR-5 ovarian was more than 100 µM each time.

For `O=[N+]([O-])C(=C(c1ccccc1)c1ccccc1)[N+](=O)[O-]`, the TGI worked out at 30.2 µM in the experiment with KM12 colon; 28.5 µM in the experiment on SNB-75 CNS; 24 µM in the experiment with HCC-2998 colon; 25.5 µM with ACHN renal; 31.3 µM with SNB-19 CNS; 24.9 µM with COLO 205 colon. In addition, the TGI with SR leukemia stood at 28.5 µM; in the experiment with OVCAR-5 ovarian, 34.5 µM.

Regarding `O=C(O)c1oc2ccc([N+](=O)[O-])c3c2c1CCC3`, the TGI with KM12 colon, in the experiment with SNB-75 CNS, with HCC-2998 colon, in the experiment with ACHN renal, in the experiment on SNB-19 CNS and in the experiment with COLO 205 colon was more than 100 µM throughout. For the same compound, the TGI in the experiment with HOP-92 NSCLC and in the experiment on OVCAR-5 ovarian was more than 100 µM throughout.

`c1ccc(CN(Cc2ccccn2)Cn2cccn2)nc1`: the TGI in the experiment with KM12 colon, with SNB-75 CNS, with ACHN renal, in the experiment with SNB-19 CNS, with COLO 205 colon and in the experiment with SK-MEL-5 melanoma was more than 100 µM throughout. Further, the TGI in the experiment on HOP-92 NSCLC and with SR leukemia was more than 100 µM throughout.

In the case of `CC(=O)Nc1[nH]c(=O)[nH]c(=O)c1N(C(C)=O)C(C)=O`, the TGI with KM12 colon, in the experiment with HCC-2998 colon, in the experiment with ACHN renal, in the experiment on SNB-19 CNS, in the experiment on COLO 205 colon and in the experiment on SK-MEL-5 melanoma was more than 100 µM each time. The TGI in the experiment with HOP-92 NSCLC and with OVCAR-5 ovarian was more than 100 µM in each case.

Regarding `OCC1CC2CC1C1(C2)OCCO1` (centres undefined), the TGI with KM12 colon, in the experiment on SNB-75 CNS, in the experiment with ACHN renal, with SNB-19 CNS, in the experiment on COLO 205 colon and in the experiment on SK-MEL-5 melanoma was more than 100 µM in each case. Moreover, the TGI with HOP-92 NSCLC, with SR leukemia and in the experiment on OVCAR-5 ovarian was more than 100 µM throughout.

Consider `CC1=C[C@H]2C[C@@]3(C)O[C@@H]([C@]4(C)CC[C@H]([C@@H](C)C(=O)O)OO4)CC3C(C)(C)[C@H]2CC1` (some centres undefined), for which the TGI with KM12 colon was found to be 1.65 µM; in the experiment on SNB-75 CNS it was 2.35 µM; in the experiment on HCC-2998 colon it was 2.28 µM; in the experiment with ACHN renal, 3.05 µM; in the experiment on SNB-19 CNS it was 3.28 µM; in the experiment with COLO 205 colon, 3.31 µM. For the same compound, the TGI with HOP-92 NSCLC is 0.273 µM; in the experiment on OVCAR-5 ovarian, 4.67 µM.

Turning to `O=C(O)C1C2CC3CC2CC31` (centres undefined), the TGI in the experiment with KM12 colon, in the experiment with SNB-75 CNS, in the experiment on ACHN renal, in the experiment on SNB-19 CNS, with COLO 205 colon and with SK-MEL-5 melanoma was more than 100 µM throughout. The TGI with HOP-92 NSCLC and with OVCAR-5 ovarian was more than 100 µM throughout.

Regarding `CN(C)c1ccc(/C=N/Nc2ccc(-c3nc4ccccc4[nH]3)cc2)cc1`, the GI50 in the experiment with KM12 colon was 9.81 µM; in the experiment on ACHN renal, 8.76 µM; in the experiment with SNB-19 CNS it was 17.3 µM; in the experiment with COLO 205 colon, 20.3 µM; in the experiment on SK-MEL-5 melanoma, 2.03 µM; in the experiment with HOP-92 NSCLC, 12.4 µM. For the same compound, in the experiment on OVCAR-5 ovarian, the GI50 is 28.9 µM. In addition, the TGI is more than 50 µM with KM12 colon; 41.7 µM in the experiment with ACHN renal; more than 50 µM in the experiment with SNB-19 CNS; more than 50 µM with COLO 205 colon; 9.92 µM in the experiment on SK-MEL-5 melanoma; more than 50 µM with HOP-92 NSCLC. In the experiment with OVCAR-5 ovarian, the TGI was more than 50 µM.

Consider `Clc1cccc(C2SCc3nc4ccccc4n32)c1Cl` (centres undefined), for which the TGI with SNB-75 CNS worked out at 18.6 µM; with ACHN renal, 35.3 µM; in the experiment on SNB-19 CNS, 33.1 µM; in the experiment with COLO 205 colon it was 36 µM; in the experiment on SK-MEL-5 melanoma it was 27.3 µM; in the experiment on HOP-92 NSCLC it was 30.1 µM. Also, the TGI with OVCAR-5 ovarian amounted to 27.1 µM.
